The values below come from ChEMBL document CHEMBL1130918, “Antineoplastic agents. 397: Isolation and structure of sesterstatins 4 and 5 from Hyrtios erecta (the Republic of Maldives)” (1998).

Converted amounts (≈) assume the structure as drawn.

Holding throughout (format): functional
The subject of assay [1] is P388. In words: Inhibitory activity against growth of P388 leukemia cells was determined. The settings on record: Mus musculus.
The subject of a further assay is FaDu. The assay is described as follows: Inhibitory activity against growth of human pharynx cancer cell line FADU was determined.
A further assay relates to NCI-H460. In words: Inhibitory activity against growth of human lung NSC cancer cell line NCI-H460 was determined.
The test system of another assay is RPMI-7951. The assay is described as follows: Inhibitory activity against growth of human melanomic cancer cell line RPMI-7951 was determined.
In a further assay the test system is BXPC-3. In words: Inhibitory activity against growth of human pancreatic cancer cell line BXPC-3 was determined.
The test system of assay [2] is P388. In words: Effective dose that causes inhibition of growth of P388 leukemia cells was determined. The following applies: Mus musculus, read-out: ED50 (the source's name).
Another assay deals with U-251. The assay is described as follows: Inhibitory activity against growth of human CNS cancer cell line U251 was determined.
Assay [3] deals with DU-145. The assay is described as follows: Inhibitory activity against growth of human prostate cancer cell line DU-145 was determined.
The subject of assay [4] is DU-145. In words: Inhibitory activity against growth of human prostate cancer cell line DU-145 was determined.
The subject of another assay is KAT-4 cell line. In words: Inhibitory activity against growth of human thyroid cancer cell line KAT-4 was determined.
The subject of the next assay is SW-1736. In words: Inhibitory activity against growth of human thyroid cancer cell line SW1736 was determined.

In the case of `CC1(C)CCC[C@]2(C)[C@H]3C[C@@H](O)[C@]4(C)c5cocc5[C@@H](O)C[C@H]4[C@]3(C)CC[C@@H]12` [SESTERSTATIN 5], the 50% growth inhibitory concentration (GI50) in the assay with P388 [1] was > 10 µg/mL; in the assay on FaDu, 1.9 µg/mL (≈ 4.91 µM); with NCI-H460, 2.5 µg/mL (≈ 6.47 µM); in the assay with RPMI-7951, 2.1 µg/mL (≈ 5.43 µM); in the assay on BXPC-3, 2.2 µg/mL (≈ 5.69 µM); in the assay on U-251, 1.9 µg/mL (≈ 4.91 µM). In the assay on DU-145 [3], this molecule gave a GI50 of 1.9 µg/mL (≈ 4.91 µM). For the same molecule, in the assay on P388 [2], the EC50 was > 10 µg/mL.
On to `CC1(C)CCC[C@]2(C)[C@H]3C[C@@H](O)[C@]4(C)c5cocc5[C@H](O)C[C@H]4[C@]3(C)CC[C@@H]12` [SESTERSTATIN 4], for which the GI50 in the assay on DU-145 [4] was 1.6 µg/mL (≈ 4.14 µM); with P388 [1], 4.9 µg/mL (≈ 12.7 µM); in the assay on FaDu, 2 µg/mL (≈ 5.17 µM); with NCI-H460, 1.8 µg/mL (≈ 4.66 µM); with BXPC-3, 1.6 µg/mL (≈ 4.14 µM); in the assay on KAT-4 cell line, 2 µg/mL (≈ 5.17 µM). This molecule also showed a concentration for 50% growth inhibition (GI50) with SW-1736 of 2.1 µg/mL (≈ 5.43 µM). The EC50 in the assay on P388 [2] turned out to be 4.87 µg/mL (≈ 12.6 µM).

The term GI50 denotes the concentration giving 50% growth inhibition. A lower GI50 goes with more potent growth inhibition.
